This note sets out measurements from US8173682B2, “Substituted pyridones as inhibitors of poly(ADP-ribose) polymerase (PARP)” (Aventis Pharmaceuticals Inc., priority 2004, dated 2012).

This experiment has as its target T1, recombinant human PARP (PARP1) (Homo sapiens, UniProt P09874).
T1 construct: Full length human PARP (PARP1) is assembled from PCR fragments; His6 tag with TEV site, from the pFastBac-HTb vector (own knowledge of the vector); made in house; host or cells: insect cells, baculovirus (Bac-to-Bac, Gibco-BRL)
Put plainly: PARP enzyme assay, Method A (radioactivity or 'ELISA' enzyme assay with partially purified enzyme). In kind it is biochemical. The note with it: recombinant human PARP preparation, radioactive or ELISA enzyme assay. The text has this: Two different methods are employed in determining the activity of the compounds of this invention in inhibiting the activity of PARP enzyme, designated as Method A and Method B respectively as set forth below.
Method A: Cloning and Expression, and Partial Purification of Recombinant Human PARP:
Full length human PARP (PARP1) is assembled from PCR fragments of a clone from a human brain cDNA library and two Incyte clones. The PARP gene (3046 bp) is sub-cloned into pFastBac-HTb vector to give PARP-pFastBac-HTb and the sequence of this clone is verified. PARP-pFastBac-HTb is expressed to obtain protein using the Bac-to-Bac expression protocol from Gibco-BRL. The recombinant virus generated is used to scale up the material for purification.
Cell pellets from cell broth of cells expressing PARP are treated with a cocktail of protease inhibitors and lysed by 4 freeze-thaw cycles. The material is suspended in 10 mM HEPES/0.1M NaCl/pH 7.2, stirred, and then centrifuged. A 40%-70% ammonium sulfate cut of protein pellet is obtained from the supernatant. The pellet is solubilized in 10 mM HEPES/pH 7.2 and centrifuged. The supernatant buffer is exchanged to 10 mM HEPES/pH 7.2/0.1M NaCl/25% glycerol by dialysis or with a desalting column. The enzyme preparation is stored at −20° C. until use.
The compounds of this invention are then tested with this enzyme preparation using either the radioactive enzyme assay or by the “ELISA” enzyme assay as set forth below.
Radioactivity Enzyme Assay:
Incorporation of radioactivity from labeled NAD into acid-precipitated protein is measured. The reaction mixture (volume 100 μL or 50 μL, in a test-tube or 96-well plate) contained 100 μg/mL calf thymus DNA (sonicated), 100 μg/mL histones, 100 mM Tris (pH 8.0), 1.0 mM DTT, 10 mM MgCl2, NAD (200 μM, 0.65 microcurie/mL), and varying amounts of enzyme. The reaction was incubated for 10 min at 37° C. or at room temperature for 60 min. The reaction was stopped and protein precipitated by addition of ice-cold trichloroacetic acid (TCA; 10% or 20% aqueous w/v). After brief storage in ice or at 4° C. for 2 hrs, the reaction mixture is filtered under vacuum through a glass fiber filter (2.5 cm disc, or 96-well filter plate). After washing with TCA and ethanol, the filter is dried and counted for tritium CPM after addition of scintillation fluid.
Incorporation of biotin-NAD into histone coated on plate is measured. A 96-well protein-binding EIA plate is coated with histone and blocked with bovine serum albumin. The reaction mixture (50 μL) contained DNA, buffer, enzyme, (test compound), and 250 μM of NAD and 5 μL of biotin-NAD (Trevigen). After reaction at room temperature the wells are washed and treated with Extravidin (Sigma). After incubation and washing color is developed with the peroxidase substrate TMB (Sigma). The TMB reaction is quenched with 2M sulfuric acid and the absorbance at 450 nm is read.
(ELISA stands for enzyme-linked immunosorbent assay.)

Where a name gives a salt, the structure may show the parent alone.

T1 sequence (P09874 whole entry, the tested form may be a part): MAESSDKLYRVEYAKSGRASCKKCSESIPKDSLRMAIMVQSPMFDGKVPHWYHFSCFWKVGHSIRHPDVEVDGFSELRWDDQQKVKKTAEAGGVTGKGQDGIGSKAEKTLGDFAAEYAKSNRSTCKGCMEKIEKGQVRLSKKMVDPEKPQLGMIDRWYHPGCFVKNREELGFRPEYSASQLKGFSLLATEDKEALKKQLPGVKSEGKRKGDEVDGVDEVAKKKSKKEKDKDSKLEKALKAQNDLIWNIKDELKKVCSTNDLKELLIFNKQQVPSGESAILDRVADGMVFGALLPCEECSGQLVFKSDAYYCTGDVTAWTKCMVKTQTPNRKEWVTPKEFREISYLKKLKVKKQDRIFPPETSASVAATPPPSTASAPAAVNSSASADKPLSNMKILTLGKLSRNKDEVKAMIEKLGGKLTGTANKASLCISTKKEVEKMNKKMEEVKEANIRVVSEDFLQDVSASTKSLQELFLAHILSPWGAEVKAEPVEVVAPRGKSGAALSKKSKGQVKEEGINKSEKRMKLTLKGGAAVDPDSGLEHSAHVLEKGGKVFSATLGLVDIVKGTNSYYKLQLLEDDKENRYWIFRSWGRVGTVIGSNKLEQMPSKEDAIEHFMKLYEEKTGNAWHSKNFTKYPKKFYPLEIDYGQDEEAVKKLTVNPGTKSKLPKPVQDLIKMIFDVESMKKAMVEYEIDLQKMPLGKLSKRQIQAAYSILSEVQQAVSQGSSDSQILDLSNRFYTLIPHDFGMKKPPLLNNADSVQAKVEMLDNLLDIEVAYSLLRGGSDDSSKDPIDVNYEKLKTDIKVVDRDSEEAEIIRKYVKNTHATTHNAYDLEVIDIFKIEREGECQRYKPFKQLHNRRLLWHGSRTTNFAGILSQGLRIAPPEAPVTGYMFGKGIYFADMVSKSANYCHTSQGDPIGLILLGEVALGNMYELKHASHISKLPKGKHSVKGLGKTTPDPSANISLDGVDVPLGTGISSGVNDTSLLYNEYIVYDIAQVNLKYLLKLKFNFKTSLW

By IC50 is commonly meant the midpoint of a concentration-inhibition curve. Regarding `CCc1cc(-c2ccc(S(=O)(=O)NCCc3cccnc3)o2)c(C)[nH]c1=O` [Example 48, 5-(5-Ethyl-2-methyl-6-oxo-1,6-dihydropyridin-3-yl)furan-2-sulfonic acid (2-pyridin-3-yl)ethylamide hydrochloride], the IC50 stood at 0.36 µM.

With `CCc1cc(-c2ccc(S(=O)(=O)NCCCN3CCCC3)o2)c(C)[nH]c1=O` [Example 49, 5-(5-Ethyl-2-methyl-6-oxo-1,6-dihydropyridin-3-yl)furan-2-sulfonic Acid (3-pyrrolidin-1-yl)propylamide hydrochloride], the IC50 stood at 0.18 µM.

For `CCc1cc(-c2ccc(S(=O)(=O)NCCN3CCCCC3)o2)c(C)[nH]c1=O` [Example 50, 5-(5-Ethyl-2-methyl-6-oxo-1,6-dihydropyridin-3-yl)furan-2-sulfonic acid (2-piperidin-1-yl)ethylamide hydrochloride], the concentration for half-maximal inhibition (IC50) is 0.27 µM.

For the compound `CCc1cc(-c2ccc(S(=O)(=O)N3CCC(N4CCCCC4)CC3)o2)c(C)[nH]c1=O` [Example 51, 3-Ethyl-6-methyl-5-[5-(4-piperidin-1-yl)piperidine-1-sulfonylfuran-2-yl]-1H-pyridin-2-one hydrochloride], the IC50 is 0.22 µM.

For the compound `CCc1cc(-c2ccc(S(=O)(=O)N3CCCN(C)CC3)o2)c(C)[nH]c1=O` [Example 52, 3-Ethyl-6-methyl-5-[5-(4-methyl-1,4-diazepane-1-sulfonyl)furan-2-yl]-1H-pyridin-2-one hydrochloride], the IC50 turned out to be 0.38 µM.

Take `CCc1cc(-c2ccc(S(=O)(=O)NCCN3CCCC3)o2)c(C)[nH]c1=O` [Example 53, 5-(5-Ethyl-2-methyl-6-oxo-1,6-dihydropyridin-3-yl)furan-2-sulfonic acid (2-pyrrolidin-1-yl)ethylamide hydrochloride]: the IC50 stood at 0.16 µM.

Regarding `CCc1cc(-c2ccc(S(=O)(=O)NCc3cccnc3)o2)c(C)[nH]c1=O` [Example 55, 5-(5-Ethyl-2-methyl-6-oxo-1,6-dihydropyridin-3-yl)furan-2-sulfonic acid (pyridin-3-yl)methylamide hydrochloride], the IC50 stood at 0.22 µM.

`CCc1cc(-c2ccc(S(=O)(=O)N3CCN(CCN4CCCCC4)CC3)s2)c(C)[nH]c1=O` [Example 57, 3-Ethyl-6-methyl-5-{5-[4-(2-piperidin-1-yl)ethylpiperizine-1-sulfonyl]thiophen-2-yl}-1H-pyridin-2-one dihydrochloride]: the IC50 was determined as 5.7 µM.

With `CCc1cc(-c2ccc(S(=O)(=O)N3CCN(Cc4ccncc4)CC3)s2)c(C)[nH]c1=O` [Example 58, 3-Ethyl-6-methyl-5-[5-(4-pyridin-4-yl)methylpiperizine-1-sulfonyl]thiophen-2-yl}1H-pyridin-2-one dihydrochloride], the IC50 amounted to 2.3 µM.

As for `CCc1cc(-c2ccc(S(=O)(=O)N3CCN(CCc4ccccn4)CC3)s2)c(C)[nH]c1=O` [Example 60, 3-Ethyl-6-methyl-5-{5-[4-(2-pyridin-2-yl)ethylpiperazine-1-sulfonyl]thiophen-2-yl}-1H-pyridin-2-one dihydrochloride], the IC50 was found to be 1.7 µM.

As for `CCc1cc(-c2ccc(S(=O)(=O)N3CCN(CCN4CCCC4)CC3)s2)c(C)[nH]c1=O` [Example 61, 3-Ethyl-6-methyl-5-{5-[4-(2-pyrrolidin-1-yl)ethylpiperazine-1-sulfonyl]thiophen-2-yl}-1H-pyridin-2-one dihydrochloride], the IC50 was 0.43 µM.

As to `CCc1cc(-c2ccc(S(=O)(=O)N3CCN(CCCN4CCCC4)CC3)s2)c(C)[nH]c1=O` [Example 62, 3-Ethyl-6-methyl-5-{5-[4-(3-pyrrolidin-1-yl)propylpiperazine-1-sulfonyl]thiophen-2-yl}-1H-pyridin-2-one dihydrochloride], the IC50 was found to be 0.6 µM.

For `CCc1cc(-c2ccc(S(=O)(=O)N3CCN(CCN(C)C)CC3)s2)c(C)[nH]c1=O` [Example 64, 5-{5-[4-(2-Dimethylaminoethyl)piperazine-1-sulfonyl]thiophen-2-yl}-3-ethyl-6-methyl-1H-pyridn-2-one dihydrochloride], the half-inhibitory concentration (IC50) stood at 1.5 µM.

Regarding `CCc1cc(-c2ccc(S(=O)(=O)NCCCN3CCN(C)CC3)s2)c(C)[nH]c1=O` [Example 65, 5-(5-Ethyl-2-methyl-6-oxo-1,6-dihydropyridin-3-yl)thiophene-2-sulfonic acid 3-(4-methylpiperazin-1-yl)propylamide dihydrochloride], the IC50 stood at 0.67 µM.

As to `CCc1cc(-c2ccc(S(=O)(=O)N3CCC(N4CCCC4)CC3)s2)c(C)[nH]c1=O` [Example 66, 3-Ethyl-6-methyl-5-{5-[(4-pyrrolidin-1-yl)piperidine-1-sulfonyl]thiophen-2-yl}-1H-pyridin-2-one hydrochloride], the IC50 was found to be 0.67 µM.

On to `CCc1cc(-c2ccc(S(=O)(=O)NCCCN3CCCC3=O)s2)c(C)[nH]c1=O` [Example 68, 5-[5-Ethyl-2-methyl-6-oxo-1,6-dihydropyridin-3-yl]thiophene-2-sulfonic acid [3-(2-oxopyrrolidin-1-yl)propyl]amide], for which the IC50 came out at 1.9 µM.

Take `CCc1cc(-c2ccc(S(=O)(=O)NCCN3CCCCC3)s2)c(C)[nH]c1=O` [Example 69, 5-[5-Ethyl-2-methyl-6-oxo-1,6-dihydropyridin-3-yl]thiophene-2-sulfonic acid (2-piperidin-1-yl)ethylamide hydrochloride]: the IC50 amounted to 0.26 µM.

Regarding `CCc1cc(-c2ccc(S(=O)(=O)NCC(c3cccnc3)N3CCOCC3)s2)c(C)[nH]c1=O` (centres unmarked) [Example 72, 5-[5-Ethyl-2-methyl-6-oxo-1,6-dihydropyridin-3-yl]thiophene-2-sulfonic acid 2-(morpholin-4-yl)-2-(pyridin-3-yl)ethylamide dihydrochloride], the IC50 was found to be 1.2 µM.

Regarding `CCc1cc(-c2ccc(S(=O)(=O)NCc3cncc(C)n3)s2)c(C)[nH]c1=O` [Example 73, 5-[5-Ethyl-2-methyl-6-oxo-1,6-dihydropyridin-3-yl]thiophene-2-sulfonic acid (6-methylpyrazin-2-yl)methylamide hydrochloride], the IC50 is 0.42 µM.

For the compound `CCc1cc(-c2ccc(S(=O)(=O)NC3CCN(CC4CC4)CC3)s2)c(C)[nH]c1=O` [Example 74, 5-[5-Ethyl-2-methyl-6-oxo-1,6-dihydropyridin-3-yl]thiophene-2-sulfonic acid (1-cyclopropylmethylpiperidin-4-yl)amide hydrochloride], the IC50 came out at 0.36 µM.

Consider `CCc1cc(-c2ccc(S(=O)(=O)NC3CCN(CC4CCCCC4)CC3)s2)c(C)[nH]c1=O` [Example 75, 5-(5-Ethyl-2-methyl-6-oxo-1,6-dihydropyridin-3-yl)thiophene-2-sulfonic acid (1-cyclohexylmethylpiperidin-4-yl)amide hydrochloride], for which the IC50 is 0.3 µM.

Regarding `CCc1cc(-c2ccc(S(=O)(=O)NC3CCN(Cc4ccc(Cl)cc4)CC3)s2)c(C)[nH]c1=O` [Example 76, 5-[5-Ethyl-2-methyl-6-oxo-1,6-dihydropyridin-3-yl]-thiophene-2-sulfonic acid 1-(4-chlorobenzyl)piperidin-4-yl]amide hydrochloride], the IC50 stood at 0.23 µM.

Regarding `CCc1cc(-c2ccc(S(=O)(=O)N(C)C3CCN(C)CC3)s2)c(C)[nH]c1=O` [Example 77, 5-[5-Ethyl-2-methyl-6-oxo-1,6-dihydropyridin-3-yl]thiophene-2-sulfonic acid methyl-(1-methylpiperidin-4-yl]amide hydrochloride], the IC50 came to 0.28 µM.
